In the supplement of paper PMC11451515:

System: P12-Ichikawa
Assay: cell viability relative to DMSO control; higher = less cytotoxic
Conditions: 48 h
How it was run: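 Viability was expressed as a per-plate percentage of DMSO wells, with cell-free wells as background. Leukemia cells (NOMO1 or SEM at 500 cells/well, P12-Ichikawa at 1000 cells/well) were adapted for at least four passages in each medium and seeded in 1536-well plates (5 μl). Library compounds in DMSO were pin-dosed over an 11-point threefold series from 47 μM to 0.79 nM, and CellTiter-Glo One luminescence was read after 48 h at 37°C.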

O=C1NC(=O)/C(=C/c2cccc(C(F)(F)F)c2)S1
cell viability [%]
Conditions | HPLM + 10% dialyzed FBS | RPMI 5 mM glucose + 10% FBS | RPMI 5 mM glucose + 10% dialyzed FBS
0.000781 µM | 107 | 99.3 | 90.3
0.00234 µM | 110 | 96.4 | 97.4
0.00702 µM | 111 | 99.8 | 91.9
0.0211 µM | 110 | 115 | 104
0.0632 µM | 103 | 94.1 | 95.9
0.19 µM | 108 | 94.8 | 93.1
0.569 µM | 104 | 98.6 | 94.2
1.71 µM | 110 | 98.7 | 99.7
5.12 µM | 106 | 100 | 97.4
15.4 µM | 98 | 89.4 | 90.2
46.1 µM | 100 | 82.9 | 89.2
